Laboratory results from a melting point compilation (Tetko et al.; mined from patent text by program, amines drawn as free bases though some values may be those of a salt).

melting point	Structure (SMILES)
178 to 180 °C	O=S1(=O)NCc2ccccc2N1
118 to 119 °C	Cc1nc(N)c2nc(C)n(CCOCCCc3ccccc3)c2c1C
253 to 257 °C	COc1cc2c3c(c1)c(=O)c(C(=O)O)cn3CCC2
130 °C	O=C1C=CCC(CCc2ccccc2)(c2ccccc2)O1 (stereo not given)
40 to 43 °C	OCCCOc1ccc(Cl)c(Cl)c1
101 to 105 °C	CCOC(=O)c1nnc(SC)nc1NCc1ccc(OC)c(Cl)c1
> 280 °C	O=C(O)c1ccc(-c2cc([N+](=O)[O-])ccc2F)cc1
207 to 208 °C	O=C(NC1CCN(CCCOc2ccccc2C(=O)O)CC1)c1ccccc1
258 to 259 °C	O=C(O)c1ccc(-c2nc(-c3ccc(C(F)(F)F)cc3)co2)cc1
125 to 130 °C	N#CCc1c[nH]c2ccc(N)cc12
52 to 54 °C	COc1ccc(CCNC(=O)[C@@H](N)C(C)C)cc1OC
50 to 52 °C	COC(=O)C[C@H](Cc1ccccc1)NC(=O)OCC(C)C
148 to 150 °C	Cc1cccc(C(=O)O)c1NC(=S)Cc1ccccc1
53 to 53.5 °C	CC(C)=CCC/C(C)=C/CC/C(C)=C/C(N)=O
117 to 118 °C	CCOC(=O)c1nc(-c2ccc(Cl)cc2Cl)c(-c2ccc(Cl)cc2)s1
77 to 80 °C	COC(=O)c1cccc(CC#N)c1[N+](=O)[O-]
85 to 86 °C	CNC(Cc1ccccc1NC(=O)C(C)(C)C)c1ccccc1 (stereo not given)
155 to 162 °C	Nc1ncc(-c2cccc3ccccc23)o1
128 to 130 °C	O=[N+]([O-])c1oc2c(CO)cccc2c1-c1ccccc1
143 to 149 °C	O=C(Oc1c(Cl)cc(Cl)c(Cl)c1Cl)c1ccc(CCl)cc1
102 to 105 °C	O=C(NCc1ccccc1)c1ccnc(-n2ccc(O)cc2=O)c1
77 to 78 °C	CSc1nnc(SCc2ccc(Cl)cc2)s1
98 to 102 °C	OC1CSC(Oc2cc(-c3ccncc3)cnc2F)C(O)C1O (stereo not given)
119 to 120 °C	CC(=O)Nc1ccc(C(=O)c2c(N)sc3c2CCN(Cc2ccccc2)C3)cc1
93 to 96 °C	CC1(C)Oc2ccc3nc(C#N)ccc3c2C(NCCc2ccccc2)C1O (stereo not given)

melting point	Structure (SMILES)
230 to 232 °C	CC(C)(C)N1CCc2c(C(=O)O)nc3c(C#N)cnn3c21
166 to 168 °C	CCOC(=O)C1=C(NC(=O)Nc2cc(C(=O)OC(C)C)c(F)cc2Br)CCC1
141 to 149 °C	CC1(C)Cc2cc(O)c3c(c2C(c2cccc(-c4ccncc4)c2)=N1)CC(C)(C)O3
236 °C	CCn1c(=O)[nH]c(=O)c2c(-c3ccc(F)cc3)c(/C=C/C=O)c(C3CC3)nc21
84 to 85 °C	OCCOc1ccc(C2CCc3ccccc3O2)cc1 (stereo not given)
219 to 227 °C	CN1CCN(CCC/C=C/c2ccc3c(Nc4ccc(Sc5nccn5C)c(Cl)c4)c(C#N)cnc3c2)CC1
> 250 °C	CC(=O)NC[C@H]1CN(c2ccc(N3CCN(C(=O)CCC(=O)c4ccc(C(N)=O)cc4)CC3)c(F)c2)C(=O)O1
106 °C	CC(=O)OC1COC(NNC(=O)C(F)(F)F)C(OC(C)=O)C1OC(C)=O (stereo not given)
> 260 °C	Cc1cc(C)nc(NC(N)=S)n1
155 to 157 °C	CCCCc1cc(SCc2ccc(-c3ccc(C(F)(F)F)cc3)cc2)ccc1OCC(=O)O
250 to 252 °C	Cc1c(-c2ccncc2)[nH]c(-c2ccncc2)c1C(C)O (stereo not given)
124 to 126 °C	CN(C(=O)C(F)(F)F)C(C(=O)O)c1ccccc1 (stereo not given)
60 °C	CC1COc2cccc([N+](=O)[O-])c2N1 (stereo not given)
141 °C	CC(C)(C)OC(=O)C[C@H](NS(=O)(=O)c1ccc2ccccc2c1)C(=O)O
142 to 145 °C	CCC(=O)N1C(=O)c2cc(C)ccc2Oc2ncccc21
108 to 110 °C	CCOC(=O)c1cnoc1-c1ccc(Cl)c(Cl)c1
183 to 184 °C	COC(=O)Cc1ccc(N[C@@H](CCC(N)=O)C(=O)O)cc1
49 °C	COc1c(C)cc(Cc2ccc3c(c2)OCO3)cc1C
116 to 117 °C	O=C(NCCO)c1cccc(-c2cccc3nn(Cc4ccc(F)c(F)c4)cc23)c1
90 to 94 °C	COC1=C(OC)C(=O)C2=C(CC(CCCCOc3ccc(C(=O)N4CCC(c5ccccc5)CC4)cc3)C2)C1=O
90 to 118 °C	CCCCCN(CCC12CC3CC(CC(C3)C1)C2)C(=O)NC/C=C/c1ccncc1
108 to 112 °C	CCOC(C)O[C@H]1C(=O)N(C(=S)Nc2ccccc2)[C@H]1c1ccccc1 (stereo not given in full)
158 to 159 °C	Cc1ccccc1CNc1cc(C(=O)N(C)C)cc2c1nc(C)n2C
109 to 110 °C	CCCCOC(=O)c1ccc(-c2nc(C(Cl)(Cl)Cl)nc(C(Cl)(Cl)Cl)n2)cc1
186 to 188 °C	COCOC1CCN(c2ccc(NC(=O)c3cnn(-c4ccc(Cl)cc4)c3C)cc2C#N)CC1

melting point	Structure (SMILES)
27 to 29 °C	CC(=O)c1ccc(Cc2ccc(F)cc2)o1
119 °C	COc1ccc(SC(C(=O)NO)C(C)C)cc1 (stereo not given)
147 to 148 °C	CCOC(=O)c1c(C)nc2cc(OC)c(OC)cc2c1-c1ccc(OC)c(OC)c1
238 to 240 °C	Cc1cc2c3c(ccc2cc1Br)OC(=O)C3
178 to 180 °C	Brc1ccc2c(c1)C(c1ccc(Oc3ccccc3)cc1)(c1ccc(Oc3ccccc3)cc1)c1cc(Br)ccc1-2
132 to 135 °C	CC(=O)N(O)C(C)c1ccc2c(c1)oc1ccccc12 (stereo not given)
126 to 127 °C	CC(C)CC1C(=O)NCCN1Cc1ccccc1 (stereo not given)
82 to 86 °C	CCCCCCCCCCCCCCCCCCOc1cc(OC(=O)C(c2ccccc2)c2ccccc2)cc(C(=O)O)c1
320 to 323 °C	Cc1cc2c3c(cc(Br)cc3c1Br)C(=O)N(O)C2=O
162 to 165 °C	Clc1ccccc1-c1cnn2cnnc2n1
166 to 169 °C	CC(=O)NCc1ccc(C(C)(C)C(=O)O)cc1
146 to 148 °C	CC(=O)Oc1ccc(Cl)cc1C(=O)O
116 to 118 °C	CCNC(=O)[C@@H]1CCCN1C(=O)[C@H](C)NC(=O)C12CC3CC(CC(C3)C1)C2
146 to 148 °C	CCC(c1cc2c(-c3ccc(C(F)(F)F)n(C)c3=O)c(F)cc(Cl)c2o1)S(C)(=O)=O (stereo not given)
250 °C	CN(c1ccc(N)cc1)c1nc(=O)c2cccnc2s1
77 °C	C#CCn1cc(CO)cc1C(=O)OC
88 °C	O=C(CCCCCBr)N1Cc2ccccc2C1
198 to 201 °C	NC(=O)c1sc2nc(N3CCC(NCC(O)c4ccc5ccccc5n4)CC3)cc(C(F)(F)F)c2c1N (stereo not given)
201 to 205 °C	Cc1nc(C#N)ccc1O
124 to 127 °C	N#CC(c1ccccc1)c1cn[nH]c1 (racemic)
234 °C	O=C(O)c1cc(-c2ccccc2)c2sccc2c1
> 220 °C	O=C1C[C@H]2CCN(Cc3ccccc3)C[C@H]2c2ccc(F)cc21 (relative stereo)
230 to 231 °C	CC(Oc1ncn(-c2cc(Cl)cc(Cl)c2)n1)C(=O)O (stereo not given)
107 to 110 °C	CC(C)(C)c1cc(SCCC(=O)NN)cc(C(C)(C)C)c1O
127 to 128 °C	CN(C)Cc1cccc(OCCCNc2nc(N=Cc3ccncc3)nn2C)c1

melting point	Structure (SMILES)
84 to 88 °C	CSc1nnc(C2CCCCC2)c(=O)n1C
151 to 152 °C	CC(C)(C)OC(=O)N1CCC(Sc2cc(C(C)(C)C)c(O)c(C(C)(C)C)c2)CC1
79 to 81 °C	COc1ccc2nc(Cl)c(OC)nc2c1
100 to 102 °C	Cc1ccc(S(=O)(=O)N2CCCC(CCl)C2)cc1 (stereo not given)
137 to 139 °C	NC(CCCSc1nccc(NC(N)=NCC(F)(F)F)n1)=NO
107 °C	Nc1ccc(C(=O)c2cccnc2)cc1
150 to 154 °C	CCOC(=O)C1=C(NC(=O)Nc2cc(C(=O)OC(C)C)c(Br)cc2F)CCC1
112 °C	CCCCOc1ccc(S(=O)(=O)C2(C(=O)NO)CCN(Cc3ccc(F)cc3)CC2)cc1
178 to 181 °C	COc1cccc(C(F)(F)F)c1C(N)=O
125 to 126 °C	Cn1cc(C#N)cc1C=O
118 to 119 °C	CCOC(=O)c1cn(Cc2ccc(OCc3nc(-c4ccccc4)oc3C)cc2)nc1OCc1ccc(OCc2nc(-c3ccccc3)oc2C)cc1
217 to 218 °C	COc1ccc(C(=O)CCC(=O)O)cc1CO
104 to 105 °C	O=C(O)CCCN1CCN2c3ccccc3Cc3ccccc3C2C1 (stereo not given)
83 to 85 °C	COc1cccc(/C(C#N)=C/c2ccc(OC)c(OC3CCCC3)c2)c1
180 °C	O=[N+]([O-])c1ccc(Oc2c(Cl)cc(S(=O)(=O)NC(=NO)Nc3ccc(Cl)cc3)cc2Cl)c(Cl)c1
118 to 121 °C	CCOC(=O)C(C)(CCCN(C)CCc1ccc(OC)c(OC)c1)c1ccc(OC)c(OC)c1 (stereo not given)
38 to 40 °C	CCCCCCCCCCCCCCCCCc1nc(C(C)N)c[nH]1 (stereo not given)
86 to 87 °C	O=S(=O)(Nc1ccc(Cl)cc1C(=NOc1ccc(Cl)cc1)c1ccccc1)C(F)(F)F
124 to 125 °C	O=c1cc(-c2ccccc2)oc2ccc(OCCCCN3CCC(O)CC3)cc12
71 to 72 °C	CC(C)C(C)(C#N)N1C(=O)c2cccc(Cl)c2C1=O (stereo not given)
196 to 200 °C	O=C(O)Cc1nn(C(c2ccccn2)c2ncno2)c(=O)c2ccccc12 (stereo not given)
98 to 100 °C	O=S(=O)(CCl)N(Cc1cccnc1)c1ccc(Cl)cc1
115 to 116 °C	CCCCCC(C)Nc1nnc(-c2cccc(Oc3ccc(C(C)(C)C)cc3)c2)s1 (stereo not given)
278 to 280 °C	CN(C)CCCc1cc(C(=O)Nc2ccc(-c3ccc(C(=O)O)cc3)cc2)ccc1O
181 °C	COc1ccccc1NS(=O)(=O)c1cccc(C=CC(=O)NO)c1

Structure (SMILES)	melting point
CN1CC=C(c2cn(-c3cccnc3)c3ccc([N+](=O)[O-])cc23)CC1	175 to 177 °C
CC(C)(C)NC(=O)c1nn(-c2ccc(F)cc2F)c2c1[C@@H]1CC[C@@]2(C)C1(C)C	161 to 163 °C
c1nnnn1C1CN2CCC1CC2 (stereo not given)	83 to 84 °C
CC(Cc1ccc(O)cc1)NCC(O)c1cccc(Cl)c1 (stereo not given)	50 to 55 °C
Clc1ccc2c(c1)C(c1ccccc1Cl)=CCc1nncn1-2	189 to 190 °C
